Assay [1] concerns the target T1, NMDA receptor subunits 1A/2A (Rattus norvegicus, UniProt P35439+Q00959).
T1 construct: expressed in transfected cells; host or cells: Xenopus laevis oocytes (cRNA injection; clones from Dr. P. H. Seeburg)
Briefly: Electrophysiological assay at NMDA receptor subunits expressed in Xenopus oocytes, 1A/2A. The class given is cell-based. The following applies: glutamate 100 μm and glycine 1-100 μm. Put shortly: (§1)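 Two-electrode voltage clamp of Xenopus oocytes injected with rat NR1A plus NR2A, 2B or 2C cRNA (1:1), recorded 3–21 days post-injection in Ringer's, pH 7.4. Currents evoked by glutamate (100 μm) with glycine (1–100 μm); antagonist applied by bath perfusion at rising concentrations, IC50 from logistic fit or linear regression for incomplete curves.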

Assay [2] concerns the target T2, NMDA receptor subunits 1A/2C (Rattus norvegicus, UniProt P35439+Q00961).
T2 construct: expressed in transfected cells; host or cells: Xenopus laevis oocytes (cRNA injection; clones from Dr. P. H. Seeburg)
Put plainly: Electrophysiological assay at NMDA receptor subunits expressed in Xenopus oocytes, 1A/2C. In kind it is cell-based. The following applies: Xenopus oocytes; glutamate 100 μm and glycine 1-100 μm; read-out: Subunits IC50, 1A/2C. Put shortly: as §1

The subject of assay [3] is Maximal Electroshock-induced Seizures. Briefly: Maximal electroshock-induced seizures (MES). In kind it is in vivo. The following applies: Mus musculus; mice; 50 mA, 60 pulses/sec, 1 sec.
Excerpt: Seizures were induced by application of current (50 mA, 60 pulses/sec, 0.8 sec pulse width, 1 sec duration, d.c.) through saline-coated corneal electrodes using a Ugo Basile ECT device (Model 7801). […] A tonic seizure was defined as a hindlimb extension in excess of 90 degrees from the plane of the body.
Assay [4] concerns the target T3, NMDA receptor subunits 1A/2B (Rattus norvegicus, UniProt P35439+Q00960).
T3 construct: expressed in transfected cells; host or cells: Xenopus laevis oocytes (cRNA injection; clones from Dr. P. H. Seeburg)
Briefly: Electrophysiological assay at NMDA receptor subunits expressed in Xenopus oocytes, 1A/2B. The class given is cell-based. The following applies: Xenopus oocytes; glutamate 100 μm and glycine 1-100 μm; read-out: Subunits IC50, 1A/2B. In a few lines: as §1

The structures appear in SMILES notation. Counter-ions that a name gives are not always drawn.

T3 sequence (Q00960 27-1482, other chains not shown): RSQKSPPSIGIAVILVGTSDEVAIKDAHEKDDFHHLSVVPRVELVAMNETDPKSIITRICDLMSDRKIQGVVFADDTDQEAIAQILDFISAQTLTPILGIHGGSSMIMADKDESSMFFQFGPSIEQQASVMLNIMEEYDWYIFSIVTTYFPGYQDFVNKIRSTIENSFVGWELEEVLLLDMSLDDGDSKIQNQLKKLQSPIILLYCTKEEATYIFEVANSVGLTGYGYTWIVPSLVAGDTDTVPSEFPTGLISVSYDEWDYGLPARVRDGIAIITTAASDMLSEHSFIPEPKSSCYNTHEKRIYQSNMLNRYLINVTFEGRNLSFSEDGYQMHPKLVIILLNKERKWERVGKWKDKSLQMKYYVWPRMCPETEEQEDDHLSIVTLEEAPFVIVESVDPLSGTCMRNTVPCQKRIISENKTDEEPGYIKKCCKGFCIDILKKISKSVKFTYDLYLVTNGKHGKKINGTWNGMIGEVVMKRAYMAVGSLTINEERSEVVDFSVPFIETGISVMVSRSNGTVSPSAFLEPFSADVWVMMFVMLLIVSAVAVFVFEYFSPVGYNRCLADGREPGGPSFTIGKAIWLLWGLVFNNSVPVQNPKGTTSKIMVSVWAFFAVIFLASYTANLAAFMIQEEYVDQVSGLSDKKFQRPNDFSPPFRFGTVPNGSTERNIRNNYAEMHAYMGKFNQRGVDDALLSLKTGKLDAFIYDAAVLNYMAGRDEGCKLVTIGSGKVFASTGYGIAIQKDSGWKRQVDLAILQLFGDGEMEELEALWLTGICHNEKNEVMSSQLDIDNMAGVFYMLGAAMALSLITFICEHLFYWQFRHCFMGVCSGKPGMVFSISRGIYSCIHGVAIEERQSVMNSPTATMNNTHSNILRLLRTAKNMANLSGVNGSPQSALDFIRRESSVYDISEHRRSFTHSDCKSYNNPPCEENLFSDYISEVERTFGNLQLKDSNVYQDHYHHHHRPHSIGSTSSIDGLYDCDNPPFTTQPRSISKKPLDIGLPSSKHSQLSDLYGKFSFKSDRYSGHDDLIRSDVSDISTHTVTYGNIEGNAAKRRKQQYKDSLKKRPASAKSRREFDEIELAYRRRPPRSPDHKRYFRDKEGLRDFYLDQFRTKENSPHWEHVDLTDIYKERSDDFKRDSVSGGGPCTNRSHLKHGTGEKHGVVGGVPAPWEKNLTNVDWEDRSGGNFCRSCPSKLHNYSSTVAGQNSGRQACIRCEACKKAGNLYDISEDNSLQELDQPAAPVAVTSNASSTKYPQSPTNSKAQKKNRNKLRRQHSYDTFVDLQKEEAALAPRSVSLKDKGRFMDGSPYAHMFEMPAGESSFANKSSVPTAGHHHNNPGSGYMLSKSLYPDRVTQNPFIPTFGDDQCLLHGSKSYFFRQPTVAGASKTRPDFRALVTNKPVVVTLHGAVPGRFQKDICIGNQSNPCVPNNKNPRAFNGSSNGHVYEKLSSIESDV
T1 sequence (Q00959 20-1464 limits assumed, other chains not shown): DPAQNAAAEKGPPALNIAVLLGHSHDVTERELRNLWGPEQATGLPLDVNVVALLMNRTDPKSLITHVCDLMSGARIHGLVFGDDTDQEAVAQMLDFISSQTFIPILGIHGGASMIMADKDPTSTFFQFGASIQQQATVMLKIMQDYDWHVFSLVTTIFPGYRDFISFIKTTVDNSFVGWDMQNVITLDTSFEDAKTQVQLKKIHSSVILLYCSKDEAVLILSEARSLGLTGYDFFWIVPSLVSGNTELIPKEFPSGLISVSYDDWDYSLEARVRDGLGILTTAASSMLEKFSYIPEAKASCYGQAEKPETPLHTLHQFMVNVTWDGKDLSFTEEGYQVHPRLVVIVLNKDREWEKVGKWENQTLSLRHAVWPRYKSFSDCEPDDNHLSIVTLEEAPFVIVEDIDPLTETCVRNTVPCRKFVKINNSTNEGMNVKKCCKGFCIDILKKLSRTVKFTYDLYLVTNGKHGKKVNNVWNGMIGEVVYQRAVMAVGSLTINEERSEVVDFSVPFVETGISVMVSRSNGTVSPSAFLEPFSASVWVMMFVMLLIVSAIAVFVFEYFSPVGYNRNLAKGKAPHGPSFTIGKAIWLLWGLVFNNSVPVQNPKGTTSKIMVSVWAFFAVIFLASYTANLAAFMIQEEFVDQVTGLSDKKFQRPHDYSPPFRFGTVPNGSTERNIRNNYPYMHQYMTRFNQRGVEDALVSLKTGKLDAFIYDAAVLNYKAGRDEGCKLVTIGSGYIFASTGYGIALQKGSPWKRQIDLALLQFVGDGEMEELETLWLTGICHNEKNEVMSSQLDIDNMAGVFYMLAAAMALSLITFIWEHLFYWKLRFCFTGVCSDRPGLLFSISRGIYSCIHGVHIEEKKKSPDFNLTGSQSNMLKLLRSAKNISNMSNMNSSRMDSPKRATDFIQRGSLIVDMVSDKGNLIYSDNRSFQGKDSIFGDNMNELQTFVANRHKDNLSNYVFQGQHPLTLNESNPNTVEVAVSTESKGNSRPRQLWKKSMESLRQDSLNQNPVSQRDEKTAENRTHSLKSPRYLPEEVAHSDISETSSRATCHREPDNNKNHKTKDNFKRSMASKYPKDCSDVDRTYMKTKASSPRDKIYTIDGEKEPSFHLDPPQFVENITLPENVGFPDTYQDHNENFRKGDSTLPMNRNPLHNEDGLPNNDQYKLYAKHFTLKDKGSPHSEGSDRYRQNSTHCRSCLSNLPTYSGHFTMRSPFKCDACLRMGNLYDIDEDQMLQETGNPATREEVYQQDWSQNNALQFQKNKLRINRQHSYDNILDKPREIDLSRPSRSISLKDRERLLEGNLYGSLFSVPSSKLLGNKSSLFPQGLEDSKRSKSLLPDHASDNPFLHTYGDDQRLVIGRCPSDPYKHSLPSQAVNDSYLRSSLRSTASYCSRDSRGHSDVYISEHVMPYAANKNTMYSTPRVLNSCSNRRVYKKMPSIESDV
T2 sequence (Q00961 20-1237, other chains not shown): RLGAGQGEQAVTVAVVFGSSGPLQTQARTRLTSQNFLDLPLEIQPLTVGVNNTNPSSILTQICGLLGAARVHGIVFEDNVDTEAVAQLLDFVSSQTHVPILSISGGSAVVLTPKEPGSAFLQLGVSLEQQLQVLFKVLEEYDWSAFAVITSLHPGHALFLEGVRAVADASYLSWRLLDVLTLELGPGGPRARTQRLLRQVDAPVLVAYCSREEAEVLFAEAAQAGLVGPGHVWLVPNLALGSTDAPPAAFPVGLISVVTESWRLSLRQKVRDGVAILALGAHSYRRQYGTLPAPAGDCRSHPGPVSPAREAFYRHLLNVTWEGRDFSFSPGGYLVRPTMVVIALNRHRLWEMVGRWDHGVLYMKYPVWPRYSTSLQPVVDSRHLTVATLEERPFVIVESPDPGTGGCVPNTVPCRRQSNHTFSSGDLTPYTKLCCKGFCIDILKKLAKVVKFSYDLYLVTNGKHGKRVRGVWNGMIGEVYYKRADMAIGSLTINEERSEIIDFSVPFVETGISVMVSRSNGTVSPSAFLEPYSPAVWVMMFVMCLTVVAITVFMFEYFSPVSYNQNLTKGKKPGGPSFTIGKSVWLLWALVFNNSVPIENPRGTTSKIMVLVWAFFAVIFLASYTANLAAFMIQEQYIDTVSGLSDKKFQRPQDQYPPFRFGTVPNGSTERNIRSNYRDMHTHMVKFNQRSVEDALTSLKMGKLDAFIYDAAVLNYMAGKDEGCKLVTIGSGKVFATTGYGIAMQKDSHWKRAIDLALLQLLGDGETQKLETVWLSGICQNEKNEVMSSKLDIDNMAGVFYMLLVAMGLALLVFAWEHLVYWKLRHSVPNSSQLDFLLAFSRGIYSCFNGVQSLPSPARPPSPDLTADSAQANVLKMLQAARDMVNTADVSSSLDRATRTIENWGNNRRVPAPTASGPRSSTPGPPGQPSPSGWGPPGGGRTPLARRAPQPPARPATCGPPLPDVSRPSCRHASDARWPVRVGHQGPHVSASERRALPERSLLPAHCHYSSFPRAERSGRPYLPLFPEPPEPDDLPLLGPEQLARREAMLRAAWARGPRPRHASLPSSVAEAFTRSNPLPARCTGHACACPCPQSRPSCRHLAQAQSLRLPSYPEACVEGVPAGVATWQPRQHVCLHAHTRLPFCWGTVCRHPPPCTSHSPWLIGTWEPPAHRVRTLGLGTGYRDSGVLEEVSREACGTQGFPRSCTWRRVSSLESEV

Regarding `Oc1ccc(OCCN2CCC(Cc3ccc(F)c(F)c3)CC2)cc1` [Ex. 122, 1-[2-(4-Hydroxyphenoxy)ethyl]-4-(3,4-difluorobenzyl)piperidine hydrochloride], the figures for the IC50 in assay [1], in assay [2] and in assay [4] were 55 µM, 280 µM and 0.18 µM, respectively. This molecule also displayed a 50% effective dose (ED50) in assay [3] of 5 mg/kg.

Regarding `COc1ccc(CC2CCN(CCOc3ccc(O)cc3)CC2)cc1` [Ex. 121, 1-[2-(4-Hydroxyphenoxy)ethyl]-4-(4-methoxybenzyl)piperidine hydrochloride], the IC50 is 110 µM in assay [1], more than 300 µM in assay [2] and 0.05 µM in assay [4]. Also, in assay [3], it took a dose of 2.5 mg/kg to reach the 50% effect level (ED50).

Consider `OC1(Cc2ccccc2)CCN(CCOc2ccccc2)CC1` [Ex. 47, 4-Benzyl-4-hydroxy-1-(2-phenoxyethyl)piperidine hydrochloride], for which the figures for the IC50 in assay [1], in assay [2] and in assay [4] were 85 µM, more than 100 µM and 3 µM, respectively. In assay [3], the 50% effect level (ED50) was put at a dose of 3.2 mg/kg.

In the case of `Fc1ccc(OCCN2CCC(Nc3ccc(Cl)cc3)CC2)cc1` [Ex. 38, 4-(4-Chloroanilino)-1-(2-(4-fluorophenoxy)ethyl)piperidine dihydrochloride], the IC50 in assay [1] is 75 µM; in assay [2], more than 100 µM; in assay [4] it was 45 µM. In assay [3], the ED50 was 10 mg/kg.

Turning to `CC(C)(C)c1ccc(CC2CCN(CCOc3ccc(O)cc3)CC2)cc1` [Ex. 132, 1-[2-(4-Hydroxyphenoxy)ethyl]-4-(4-t-butylbenzyl)piperidine hydrochloride], the IC50 in assay [1] turned out to be 23 µM; in assay [2] it was 230 µM; in assay [4], 0.16 µM. The same molecule displayed an ED50 in assay [3] of 1 mg/kg.

With `CCc1ccc(CC2CCN(CCOc3ccc(O)cc3)CC2)cc1` [Ex. 120, hydrochloride], the IC50 was 55 µM in assay [1], more than 300 µM in assay [2] and 0.02 µM in assay [4]. This molecule also had an ED50 in assay [3] of 2 mg/kg.

As to `O=c1[nH]c2ccc(OCCN3CC=C(Cc4ccccc4)CC3)cc2[nH]1` [Ex. 177, 4-Benzyl-1-(2-(2-oxobenzimidazol-5-oxy)ethyl)-1,2,5,6-tetrahydropyridine], the results for the IC50 in assay [1], in assay [2] and in assay [4] were 35 µM, 210 µM and 0.1 µM, respectively. In assay [3], the 50% effect level (ED50) was put at a dose of 5 mg/kg.

`Cc1ccc(CC2CCN(CCOc3ccc(F)cc3)CC2)c(F)c1` [Ex. 133, 4-(2-Fluoro-4-methylbenzyl)-1-(2-(4-fluorophenoxy)ethyl)piperidine hydrochloride]: the IC50 in assay [1] came to 80 µM; in assay [2], 150 µM; in assay [4] it was 0.21 µM. In addition, the ED50 in assay [3] turned out to be 2.5 mg/kg.

As for `Cc1ccc(CC2CCN(CCOc3ccc(O)cc3)CC2)c(F)c1` [Ex. 134, 4-(2-Fluoro-4-methylbenzyl)-1-(2-(4-hydroxyphenoxy)ethyl)piperidine hydrochloride], the IC50 in assay [1] came to 60 µM; in assay [2], 140 µM; in assay [4], 0.03 µM. In assay [3], this molecule showed an ED50 of 1.5 mg/kg.

`CN(CCN1CCC(Cc2ccccc2)CC1)c1ccccc1` [Ex. 143, 4-Benzyl-1-((2-(N-methyl-N-phenyl)amino)ethyl)piperidine dihydrochloride]: the IC50 was 190 µM in assay [1], more than 300 µM in assay [2] and 0.4 µM in assay [4]. It took a dose of 0.5 mg/kg to reach the 50% effect level in assay [3] (ED50).

For `COc1ccc(C2CCN(CCCCc3ccccc3)CC2)cc1` [Ex. 166, 4-(4-Methoxyphenyl)-1-(4-phenylbutyl)piperidine], the IC50 in assay [1] was 270 µM; in assay [2], more than 300 µM; in assay [4], 170 µM. In addition, in assay [3], the 50% effect level (ED50) was put at a dose of 0.7 mg/kg.

Take `OC(COc1cccc2ccccc12)CN1CCC(Cc2ccccc2)CC1` (centres unmarked) [Ex. 3, 4-Benzyl-1-[2-hydroxy-3-(1-naphthyloxy)propyl]piperidine]: the IC50 in assay [1] was 35 µM; in assay [2], more than 100 µM; in assay [4], 2.8 µM. Besides, the 50% effect level in assay [3] (ED50) was put at a dose of 2 mg/kg.

On to `O=c1[nH]c2cc(OCCN3CCC(Cc4ccccc4)CC3)ccc2o1` [Ex. 181, 4-Benzyl-1-(2-(2-oxobenzoxazol-5-oxy)ethyl)piperidine], for which the IC50 stood at 110 µM in assay [1], 140 µM in assay [2] and 1 µM in assay [4]. In addition, in assay [3], it took a dose of 6 mg/kg to reach the 50% effect level (ED50).

As for `O=c1[nH]c2ccc(OCCN3CCC(Cc4ccccc4)CC3)cc2[nH]c1=O` [Ex. 58, 4-Benzyl-1-[2-(2,3-dioxoquinoxalin-6-oxy)ethyl]piperidine], the IC50 was 25 µM in assay [1], more than 100 µM in assay [2] and 0.1 µM in assay [4]. The same molecule displayed an ED50 in assay [3] of 5.1 mg/kg.

With `O=c1[nH]c2cccc(OCCN3CCC(Cc4ccc(Cl)cc4)CC3)c2[nH]1` [Ex. 77, 4-(4-Chlorobenzyl)-1-[2-(2-oxobenzimidazol-4-oxy)ethyl]piperidine], the values for the IC50 in assay [1], in assay [2] and in assay [4] were 50 µM, more than 100 µM and 0.11 µM, respectively. This molecule also showed an ED50 in assay [3] of 6 mg/kg.

In the case of `Oc1ccc(OCCN2CCC(Cc3ccc(F)cc3)CC2)cc1` [Ex. 102, 1-[2-(4-Hydroxyphenoxy)ethyl]-4-(4-fluorobenzyl)piperidine hydrochloride], the IC50 in assay [1] was 60 µM; in assay [2], 290 µM; in assay [4] it was 0.02 µM. The same molecule returned an ED50 in assay [3] of 3 mg/kg.

Consider `Cc1ccc(CC2CCN(CCOc3ccc(O)c(F)c3)CC2)c(F)c1` [Ex. 149, 1-[2-(4-Hydroxy-3-fluorophenoxy)ethyl]-4-(2-fluoro-4-methylbenzyl)piperidine hydrochloride], for which the IC50 in assay [1] worked out at 50 µM; in assay [2], 140 µM; in assay [4], 0.04 µM. The 50% effect level in assay [3] (ED50) was put at a dose of 2 mg/kg.

Take `Nc1ccccc1OCCN1CCC(Cc2ccc(Cl)cc2)CC1` [Ex. 74, 4-(4-Chlorobenzyl)-1-[2-(2-aminophenoxy)ethyl]piperidine]: the IC50 in assay [1] was 60 µM; in assay [2] it was more than 100 µM; in assay [4], 3 µM. For the same molecule, the ED50 in assay [3] amounted to 3.5 mg/kg.

Regarding `Oc1ccc(CC2CCN(CCOc3ccc(F)cc3)CC2)cc1` [Ex. 104], the IC50 was 50 µM in assay [1], more than 300 µM in assay [2] and 0.2 µM in assay [4]. The ED50 in assay [3] was 3 mg/kg.

With `Cc1ccc(CC2(O)CCN(CCOc3ccc(O)cc3)CC2)cc1.Cl` [Ex. 154, 1-[2-(4-Hydroxyphenoxy)ethyl]-4-hydroxy-4-(4-methylbenzyl)piperidine hydrochloride], the figures for the IC50 in assay [1], in assay [2] and in assay [4] were 250 µM, 230 µM and 0.02 µM, respectively. This molecule showed an ED50 in assay [3] of 1.5 mg/kg.

`Cl.Cl.Oc1ccc(OCCN2CCC(Cc3ccccn3)CC2)cc1` [Ex. 125, 1-(2-(4-Hydroxyphenoxy)ethyl)-4-(2-picolyl)piperidine dihydrochloride]: the IC50 was 75 µM in assay [1], more than 300 µM in assay [2] and 3.3 µM in assay [4]. Moreover, the ED50 in assay [3] worked out at 15 mg/kg.

For `Clc1ccc(CC2CCN(CCOc3ccccc3)CC2)cc1` [Ex. 24, 4-(4-Chlorobenzyl)-1-(2-phenoxyethyl)piperidine hydrochloride], the IC50 amounted to 70 µM in assay [1], 100 µM in assay [2] and 1 µM in assay [4]. In assay [3], this molecule displayed an ED50 of 2 mg/kg.

As for `Oc1ccc(OCCN2CCC(Cc3ccc(Cl)cc3)CC2)cc1` [Ex. 101, hydrochloride], the values for the IC50 in assay [1], in assay [2] and in assay [4] were 55 µM, 240 µM and 0.05 µM, respectively. Further, in assay [3], the ED50 is 3 mg/kg.

Values taken from US6124323A, “4-substituted piperidine analogs and their use as subtype selective NMDA receptor antagonists” (Warner-Lambert Company, priority 1998, dated 2000).
